Assay results as given in patent USRE39887E1, “Dehydrodidemnin B” (Pharma Mar, S.A., priority 1989, dated 2007).
Converted amounts (≈) assume the structure as drawn. Starred links: 1 amine or outer side, 2 acyl side, 3 side chain; linkers in the order of their positions; H or OH if unused. Positions of bridges follow the written chain, without caps; N, C: chain ends. Non-standard residues stand in square brackets, D forms with d. Residues, ends and D or L forms follow the SMILES beside them. *: point of attachment. X1 = CC[C@H](C)[C@@H](N[*:1])[C@@H](O)CC(=O)O[C@H](C(=O)[C@H](C)C(=O)[*:2])C(C)C; NMeY = CN[C@@H](Cc1ccc(O)cc1)C(=O)O; dNMeL = CN[C@H](CC(C)C)C(=O)O; Pyruvoyl = CC(=O)C(=O)*

Assays:
murine cells = assay: Mixed lymphocyte reaction
HeLa cells = assay: Growth inhibition of HeLa cells; format: cell-based, human; settings: HeLa cells in vitro
Method: 2.6 Assay Against HeLa Cells (Human Cervix Epithelioid Carcinoma)
HeLa cells were seeded into 16 mm wells at 1×10^4 cells per well in 1 mL aliquots of MEM 10C. The following day, the medium was replaced with 0.5 mL aliquots of MEM 10C containing the indicated concentrations of drug. All determinations were carried out in triplicate. A separate set of cultures without drug was counted daily to ensure that the cells remained in exponential growth over the period of observation. Cells were trypsinized and counted 4 days after seeding.

murine T-cells = assay: Growth of murine T-cells
[1] = test system: P-388 mouse leukemia cells; assay: P-388 in vivo activity; settings: QD 1-9, IP
B-16 melanoma cells = assay: B-16 melanoma in vivo activity; design: species or system mouse; settings: QD 1-9, IP; for B-16 Melanoma % T/C: significant activity T/C ≧ 125
[2] = test system: Lewis lung carcinoma cells; assay: Lewis lung in vivo activity; settings: QD 1-9, IP
KB cells = assay: Growth inhibition of KB cells; format: cell-based, human; settings: for % Inhibition / net increase in cell number: KB
[3] = test system: CV-1 cells (monkey kidney cells); assay: Cytotoxicity to CV-1 cells; format: cell-based
A-549 cells = assay: Growth inhibition of A-549 cells; format: cell-based, human; settings: for % Inhibition / net increase in cell number: 4 days after seeding
Method: 2.5 Assay Against A-549 Cells (Human Lung Carcinoma)
A-549 cells were seeded into 16 mm wells at 1×10^4 cells per well in 1 mL aliquots of MEM 10C. The following day, the medium was replaced with 0.5 mL aliquots of MEM 10C containing the indicated concentrations of drug. All determinations were carried out in triplicate. A separate set of cultures without drug was counted daily to ensure that the cells remained in exponential growth over the period of observation. Cells were trypsinated and counted 4 days after seeding.

L-1210 cells = assay: Growth inhibition of L-1210 cells; format: cell-based, mouse
Method: 2.1 Assay Against L-1210 Cells (Ascetic Fluid from DBA/2mouse)
L-1210 cells were seeded into 16 mm wells at 1×10^4 cells per well in 1 mL aliquots of MEN 10C containing the indicated concentrations of drug. All determinations were carried out in triplicate. Cells were counted after three […] to ensure that the cells remained in exponential growth over the period of observation.

murine B-cells = assay: Growth of murine B-cells
P-388 cells = assay: Growth inhibition of P-388 cells; format: cell-based, mouse; settings: for % Inhibition / net increase in cell number: three days
Method: 2.2 Assay Against P-388 Cells (Lymphoid Neoplasm from DBA/2mouse)
P-388 cells were seeded into 16 mm wells at 1×10^4 cells per well in 1 mL aliquots of MEM 10C containing the indicated concentrations of drug. All determination were carried out in triplicate. Cells were counted after three days of incubation. A separate set of cultures within drug was counted daily to ensure that the cells remained in exponential growth over the period of observation.

[4] = Immunosuppressive / immunomodulator activity
B-16 cells = assay: Growth inhibition of B-16 cells; format: cell-based, mouse; settings: for % Inhibition / net increase in cell number: 4 day after seeding
Method: 2.4 Assay Against B-16 (Mouse Melanoma)
B-16 cells were seeded into 16 mm wells at 1×10^4 cells per well in 1 mL aliquots of MEM 10C […] were carried out in triplicate. A separate set of cultures without drug was counted daily to ensure that the cells remained in exponential growth over the period for observation. Cells were typsinized and counted 4 day after seeding.

L-929 cells = assay: Growth inhibition of L-929 cells; format: cell-based, mouse; settings: for % Inhibition / net increase in cell number: 4 days after seeding
Method: 2.3 Assay Against L-929 Cells (Mouse Areolar and Adipose Tissue)
L-929 cells were seeded into 16 mm wells at 1×10^4 cells per well in 1 mL aliquots of MEM 10C. […] The following day, the medium was replaced with 0.5 mL aliquots of MEM 10C containing the indicated concentrations of drug. All determinations were carried out in triplicate. A separate set of cultures without drug was counted daily to ensure that the cells remained in exponential growth over the period of observation. Cells were typsinized and counted 4 days after seeding.

[5] = test system: Herpes simplex virus, type 1; assay: Inhibition of HSV-1 replication in CV-1 cells; format: cell-based; design: net virus produced / % Inhibition: dose or concentration left out as unconfirmed; settings: HSV-1 in CV-1 cells; for % Inhibition / net virus produced: 24 hours after infection
Method: 2.8 Assay Against HSV-1 (Herpes Simplex Virus Type-1)
16 mm diameter wells were seeded each with 2×10^5 CV-1 cells in 1 mL aliquots of MEM 10C. Four days after, cells were infected with HSV-1 at 10C PFU per well. After adsorption for 1.5 hours, the inoculum was replaced in pairs of wells with 0.5 mL aliquots of MEM 5C containing the indicated concentrations of drug. Cells from two wells without drug were scraped into the medium and frozen 4 hours after infection to provide a baseline for calculating new virus production. The average of these samples was 2.5×10^5+1.2×10^6 PFU per mL. The remaining samples were collected 24 hours after infection.

[6] = Montgomery et al., Transplantation, 40, 49-56 (1985); cited from earlier work
human lymphocytes = settings: compared with other didemnin compounds; Montgomery et al. (1987); cited from earlier work

Structure (SMILES): CC[C@H](C)[C@H]1NC(=O)[C@@H](NC(=O)[C@@H](CC(C)C)N(C)C(=O)[C@@H]2CCCN2C(=O)C(C)=O)[C@@H](C)OC(=O)[C@H](Cc2ccc(OC)cc2)N(C)C(=O)[C@@H]2CCCN2C(=O)[C@H](CC(C)C)NC(=O)[C@@H](C)C(=O)[C@H](C(C)C)OC(=O)C[C@@H]1O [DDB, dehydrodidemnin B] (Pyruvoyl-P[dNMeL]T[X1]LP[NMeY](Me); ester 3-C)
- immune reaction in the mixed lymphocyte reaction (murine cells): suppresses the immune reaction of murine cells
- IC50 (HeLa cells): 0.5 ng/mL (≈ 0.45 nM)
- growth of murine T-cells (murine T-cells): inhibits the growth
- P-388, Median Survival Time ([1]; 80 μg/kg/injn): 19.5 days
- P-388, Median Survival Time ([1]; 160 μg/kg/injn): 21.0 days
- B-16 Melanoma Median Survival Time Days (B-16 melanoma cells; 80 μg/kg/injn): >27.0 days
- B-16 Melanoma % T/C (B-16 melanoma cells; 80 μg/kg/injn): >158%
- B-16 Melanoma Median Survival Time Days (B-16 melanoma cells; 160 μg/kg/injn): >27.0 days
- B-16 Melanoma % T/C (B-16 melanoma cells; 160 μg/kg/injn): >158%
- Lewis Lung, Mean Tumor Volume ([2]; 80 μg/kg/injn): 189 mm^3
- Lewis Lung, Mean Tumor Volume ([2]; 160 μg/kg/injn): 0 mm^3
- IC50 (KB cells; KB cells in vitro): 5.6 ng/mL (≈ 5.04 nM)
- % Inhibition (KB cells; 2.5 ng/mL DDB): 0%
- net increase in cell number (KB cells; 2.5 ng/mL DDB): 4.57 × 10^4
- % Inhibition (KB cells; 5 ng/mL DDB): 46%
- net increase in cell number (KB cells; 5 ng/mL DDB): 2.40 × 10^4
- % Inhibition (KB cells; 10 ng/mL DDB): 77%
- net increase in cell number (KB cells; 10 ng/mL DDB): 1.02 × 10^4
- IC50 [3]: 1 µg/mL (≈ 901 nM)
- % Inhibition (A-549 cells; A-549, 0.25 ng/mL DDB): 41%
- net increase in cell number (A-549 cells; A-549, 0.25 ng/mL DDB): 4.80 × 10^4
- % Inhibition (A-549 cells; A-549, 0.50 ng/mL DDB): 50%
- net increase in cell number (A-549 cells; A-549, 0.50 ng/mL DDB): 4.00 × 10^4
- % Inhibition (A-549 cells; A-549, 1.0 ng/mL DDB): 68%
- net increase in cell number (A-549 cells; A-549, 1.0 ng/mL DDB): 2.50 × 10^4
- % Inhibition (A-549 cells; A-549, 2.5 ng/mL DDB): 84%
- net increase in cell number (A-549 cells; A-549, 2.5 ng/mL DDB): 1.30 × 10^4
- IC50 (A-549 cells; A-549 cells in vitro): 0.5 ng/mL (≈ 0.45 nM)
- % Inhibition (L-1210 cells; L-1210, 0.05 ng/mL DDB): 7%
- net increase in cell number (L-1210 cells; L-1210, 0.05 ng/mL DDB): 2.7 × 10^5
- % Inhibition (L-1210 cells; L-1210, 0.1 ng/mL DDB): 7%
- net increase in cell number (L-1210 cells; L-1210, 0.1 ng/mL DDB): 2.7 × 10^5
- % Inhibition (L-1210 cells; L-1210, 0.2 ng/mL DDB): 28%
- net increase in cell number (L-1210 cells; L-1210, 0.2 ng/mL DDB): 2.1 × 10^5
- % Inhibition (L-1210 cells; L-1210, 0.5 ng/mL DDB): 66%
- net increase in cell number (L-1210 cells; L-1210, 0.5 ng/mL DDB): 1.0 × 10^5
- % Inhibition (L-1210 cells; L-1210, 1 ng/mL DDB): 91%
- net increase in cell number (L-1210 cells; L-1210, 1 ng/mL DDB): 2.5 × 10^5
- % Inhibition (L-1210 cells; L-1210, 2 ng/mL DDB): 98%
- net increase in cell number (L-1210 cells; L-1210, 2 ng/mL DDB): 6.3 × 10^5
- IC50 (L-1210 cells; L-1210 cells in vitro): 0.3 ng/mL (≈ 0.27 nM)
- growth of murine B-cells (murine B-cells): inhibits the growth
- % Inhibition (P-388 cells; P-388, 0.12 ng/mL DDB): 29%
- net increase in cell number (P-388 cells; P-388, 0.12 ng/mL DDB): 3.97 × 10^5
- % Inhibition (P-388 cells; P-388, 0.25 ng/mL DDB): 77%
- net increase in cell number (P-388 cells; P-388, 0.25 ng/mL DDB): 1.27 × 10^5
- % Inhibition (P-388 cells; P-388, 0.5 ng/mL DDB): 92%
- net increase in cell number (P-388 cells; P-388, 0.5 ng/mL DDB): 4.47 × 10^5
- IC50 (P-388 cells; P-388 cells in vitro): 0.175 ng/mL (≈ 0.158 nM)
- immunomodulator activity [4]: powerful immunomodulator
- % Inhibition (B-16 cells; B-16, 0.12 ng/mL DDB): 25%
- net increase in cell number (B-16 cells; B-16, 0.12 ng/mL DDB): 1.27 × 10^5
- % Inhibition (B-16 cells; B-16, 0.16 ng/mL DDB): 0%
- net increase in cell number (B-16 cells; B-16, 0.16 ng/mL DDB): 1.71 × 10^5
- % Inhibition (B-16 cells; B-16, 0.25 ng/mL DDB): 54%
- net increase in cell number (B-16 cells; B-16, 0.25 ng/mL DDB): 8.25 × 10^5
- % Inhibition (B-16 cells; B-16, 0.5 ng/mL DDB): 74%
- net increase in cell number (B-16 cells; B-16, 0.5 ng/mL DDB): 4.50 × 10^4
- % Inhibition (B-16 cells; B-16, 1.0 ng/mL DDB): 83%
- net increase in cell number (B-16 cells; B-16, 1.0 ng/mL DDB): 2.88 × 10^4
- IC50 (B-16 cells; B-16 cells in vitro): 0.225 ng/mL (≈ 0.203 nM)
- % Inhibition (L-929 cells; L-929, 1 ng/mL DDB): 27%
- net increase in cell number (L-929 cells; L-929, 1 ng/mL DDB): 2.31 × 10^5
- % Inhibition (L-929 cells; L-929, 2.5 ng/mL DDB): 64%
- net increase in cell number (L-929 cells; L-929, 2.5 ng/mL DDB): 1.13 × 10^5
- % Inhibition (L-929 cells; L-929, 5 ng/mL DDB): 84%
- net increase in cell number (L-929 cells; L-929, 5 ng/mL DDB): 5 × 10^5
- IC50 (L-929 cells; L-929 cells in vitro): 1.9 ng/mL (≈ 1.71 nM)
- IC50 [5]: 60 ng/mL (≈ 54 nM)
- % Inhibition ([5]; 0.03 DDB): 16%
- net virus produced ([5]; 0.03 DDB): 3.8 × 10^8 PFU/mL
- % Inhibition ([5]; 0.1 DDB): 67%
- net virus produced ([5]; 0.1 DDB): 1.5 × 10^8 PFU/mL
- % Inhibition ([5]; 0.3 DDB): 96%
- net virus produced ([5]; 0.3 DDB): 1.9 × 10^8 PFU/mL
- % Inhibition ([5]; 1 DDB): 100%
- net virus produced ([5]; 1 DDB): 0 PFU/mL

Structure (SMILES): CC[C@H](C)[C@H]1NC(=O)[C@@H](NC(=O)[C@@H](CC(C)C)N(C)C(=O)[C@@H]2CCCN2C(=O)C(C)O)[C@@H](C)OC(=O)[C@H](Cc2ccc(OC)cc2)N(C)C(=O)[C@@H]2CCCN2C(=O)[C@H](CC(C)C)NC(=O)[C@@H](C)C(=O)[C@H](C(C)C)OC(=O)C[C@@H]1O (stereo partly shown) [Didemnin B]
- immunosuppressive activity [6]: potent immunosuppressive activity
- inhibition of binding of prolactin to human lymphocytes (human lymphocytes): more potent inhibition
